What was measured:
[1] = system: Erysiphe graminis; test: in vivo effect against powdery mildew on sprayed plants (Example 5, Table V); conditions: triadimefon 50 WP, benomyl 50 WP, 6 days after infection
Protocol: (§1) The in vivo effect of various mixtures of triadimefon 50 WP and benomyl 50 WP was observed against powders mildew (Erysiphe graminis). The plants were grown in plots at 20° C., under a relative humidity of 98% for 7 days. The one-week old plant were then sprayed with the test composition and after drying were […] with Erysiphe graminis. After incubation for 6 days the results were evaluated.

[2] = system: Erysiphe graminis; test: in vivo effect against powdery mildew on sprayed plants (Example 6, Table VI); conditions: fenapronil 25 EC, benomyl 50 WP, 6 days after infection
Protocol: as §1
The procedure described in Example 5 was used but fenapronil 25 EC and benomyl 50 WP were tested. The following results have been obtained.

[3] = system: various fungi; test: interaction / activity against various fungi in vitro, overall result in words; assay type: cell-based
[4] = system: lipid and sterol synthesis; conditions: mode of action; cited from earlier work
[5] = system: fungi which are sensitive to them; conditions: Fritz et al. 1977; cited from earlier work
[6] = system: obligate parasites such as real powdery mildew, blight, rust; conditions: cited from earlier work

SMILES | Extent of infection ([1]; concentration 3%) | Extent of infection ([1]; concentration 6%) | Extent of infection ([1]; concentration 12%) | Extent of infection ([2]; concentration 12 ppm) | Extent of infection ([2]; concentration 25 ppm) | Extent of infection ([2]; concentration 50 ppm) | activity alone [3] | inhibition of lipid and sterol synthesis [4] | accumulation of fatty acids and triglycerides [5] | activity against obligate parasites [6]
CCCCNC(=O)n1c(NC(=O)OC)nc2ccccc21 [benomyl, methyl 1-(butylcarbamoyl)-2-benzimidazolecarbamate] | 32.2% | 23.3% | 16.3% | 78% | 64% | 56% | – | – | – | –
CCCCC(C#N)(Cn1ccnc1)c1ccccc1 (stereo not drawn) [fenapronil, 1H-α-butyl-α-phenylimidazol-1-yl-propanenitrile] | – | – | – | 43% | 23% | 14% | extremely potent alone and has a wide field of activity | inhibiting lipid and sterol synthesis | – | –
CC(C)NC(=O)N1CC(=O)N(c2cc(Cl)cc(Cl)c2)C1=O [promidion, 3-(3,5-dichlorophenyl)-2,4-dioxo-1-(N-isopropyl)-imidazolinecarboxamide] | – | – | – | – | – | – | – | – | induce an accumulation of fatty acids and triglycerides | –
CC(C)(C)C(=O)C(Oc1ccc(Cl)cc1)n1cncn1 (stereo not shown) [triadimefon, 1-(4-chlorophenoxy)-3,3-dimethyl-1-(1H)-(1,2,4-triazol-1-yl)buthan-2-one] | 73.5% | 66.0% | 40.6% | – | – | – | entirely ineffective against the fungi tested in vitro | inhibiting lipid and sterol synthesis | – | effective against obligate parasites such as real powdery mildew, blight, rust
C=CC1(C)OC(=O)N(c2cc(Cl)cc(Cl)c2)C1=O (stereo not shown) [vinclosolin, 3-(3,5-dichlorophenyl)-5-methyl-5-vinyl-1,3-oxazolidine-2,4-dione] | – | – | – | – | – | – | – | – | induce an accumulation of fatty acids and triglycerides | –

Reference: patent publication US4305953A, “Synergistic fungicidal compositions” (priority 1979, dated 1981)
